tested on: MV4:11 human cancer cell lines; test: Cellular viability / anti-proliferative activity, CellTiter-Glo, 5 day protocol; format: cell-based; settings: Homo sapiens, MV4-11, 120 h, MV4:11 cells; 5 day incubation; CellTiter-Glo; mean of minimum two replicates; read-out: GI50 on cellular proliferation of MV4:11 human cancer cell lines
Description: Cellular Viability of Human Tumor Cell Lines
Anti proliferative activity using MLL-harboring cell lines. […] Viability assays are performed by dispensing 200 cells at 7200 cells/mL into each well of an opaque 384-well plate and adding compounds at the indicated concentrations in a final volume of 32 μL and a final concentration of DMSO of 0.3% for all samples. A certain range of compound concentrations is made through a series of 2-fold dilutions starting 30 μM at the highest, total 22 dilutions. After a set incubation period, 5 day protocol, the viability of cells in each well is assessed using the CellTiter-Glo assay (Promega), read on a 96 Microplane Luminometer (Cytation 3, BioTek). Serial dilutions of each cell type are performed in all assays to generate standard curves and the final densities of cells are determined within the dynamic range of the instrument. GI50 values are calculated based on XLfit software (IDBS, Guildford, UK) with Sigmoidal Dose-Response Model. Each compound is tested in minimum of two replicates. Data are expressed as mean.

Compared with `Cc1cncc([C@@H](C)N2CCc3c(cc(Cn4ccnc4C)cc3-c3cn(C)nc3C(F)(F)F)C2=O)c1` [Example 197, (R)-7-((2-Methyl-1H-imidazol-1-yl)methyl)-5-(1-methyl-3-(trifluoromethyl)-1H-pyrazol-4-yl)-2-(1-(5-methylpyridin-3-yl)ethyl)-3,4-dihydroisoquinolin-1(2H)-one], `CC[C@H](c1cncc(C)c1)N1CCc2c(cc(Cn3ccnc3C)cc2-c2cn(C)nc2C(F)(F)F)C1=O` [Example 198, (R)-7-((2-Methyl-1H-imidazol-1-yl)methyl)-5-(1-methyl-3-(trifluoromethyl)-1H-pyrazol-4-yl)-2-(1-(5-methylpyridin-3-yl)propyl)-3,4-dihydroisoquinolin-1(2H)-one] is higher in GI50: less than 50 nM for the first, 62 nM for the second.

Going from `COc1ccnc(CN2CCc3c(cc(Cn4ccsc4=N)cc3-c3cn(C)nc3C(F)(F)F)C2=O)c1` [Example 101, 7-((2-Iminothiazol-3(2H)-yl)methyl)-2-((4-methoxypyridin-2-yl)methyl)-5-(1-methyl-3-(trifluoromethyl)-1H-pyrazol-4-yl)-3,4-dihydroisoquinolin-1(2H)-one] to `COc1ccnc(CN2CCc3c(cc(CN4CCCC4=N)cc3-c3cn(C)nc3C(F)(F)F)C2=O)c1` [Example 108, 7-((2-Iminopyrrolidin-1-yl)methyl)-2-((4-methoxypyridin-2-yl)methyl)-5-(1-methyl-3-(trifluoromethyl)-1H-pyrazol-4-yl)-3,4-dihydroisoquinolin-1(2H)-one], the GI50 rises from less than 50 nM to 181 nM.

`COc1ccnc(CN2CCc3c(cc(CNC(=N)C4CC4)cc3-c3cn(C)nc3C)C2=O)c1` [Example 119, N-((5-(1,3-Dimethyl-1H-pyrazol-4-yl)-2-((4-methoxypyridin-2-yl)methyl)-1-oxo-1,2,3,4-tetrahydroisoquinolin-7-yl)methyl)cyclopropanecarboximidamide] and `COc1ccnc(CN2CCc3c(cc(Cn4ccccc4=N)cc3-c3cn(C)nc3C)C2=O)c1` [Example 117, 5-(1,3-Dimethyl-1H-pyrazol-4-yl)-7-((2-iminopyridin-1(2H)-yl)methyl)-2-((4-methoxypyridin-2-yl)methyl)-3,4-dihydroisoquinolin-1(2H)-one] cannot be ordered by GI50: greater than 938 nM for the first, greater than 938 nM for the second.

`COc1ccnc([C@H](C)N2CCc3c(cc(Cn4ccn(C(F)F)c4=N)cc3-c3cn(C)nc3C(F)(F)F)C2=O)c1` [Example 72, (S)-7-((3-(Difluoromethyl)-2-imino-2,3-dihydro-1H-imidazol-1-yl)methyl)-2-(1-(4-methoxypyridin-2-yl)ethyl)-5-(1-methyl-3-(trifluoromethyl)-1H-pyrazol-4-yl)-3,4-dihydroisoquinolin-1(2H)-one] and `COc1ccnc([C@H](C)N2CCc3c(cc(Cn4ccn(C)c4=N)cc3-c3cn(C)nc3C(F)(F)F)C2=O)c1` [Example 71, (S)-7-((2-Imino-3-methyl-2,3-dihydro-1H-imidazol-1-yl)methyl)-2-(1-(4-methoxypyridin-2-yl)ethyl)-5-(1-methyl-3-(trifluoromethyl)-1H-pyrazol-4-yl)-3,4-dihydroisoquinolin-1(2H)-one] cannot be ordered by GI50: less than 50 nM for the first, less than 50 nM for the second.

Compared with `Cc1nccn1Cc1cc2c(c(-c3cn(C)nc3C(F)(F)F)c1)CCN(Cc1ccccn1)C2=O` [Example 180, 7-((2-Methyl-1H-imidazol-1-yl)methyl)-5-(1-methyl-3-(trifluoromethyl)-1H-pyrazol-4-yl)-2-(pyridin-2-ylmethyl)-3,4-dihydroisoquinolin-1(2H)-one], `Cc1nccn1Cc1cc2c(c(-c3cn(C)nc3C(F)(F)F)c1)CCN(Cc1cn(C)c3ccccc13)C2=O` [Example 189, 7-((2-Methyl-1H-imidazol-1-yl)methyl)-2-((1-methyl-1H-indol-3-yl)methyl)-5-(1-methyl-3-(trifluoromethyl)-1H-pyrazol-4-yl)-3,4-dihydroisoquinolin-1(2H)-one] is 1.6-fold lower in GI50: 1590 nM for the first, 1000 nM for the second.

Compared with `Cc1cc(CN2CCc3c(cc(Cn4ccnc4C)cc3-c3cn(C)nc3C(F)(F)F)C2=O)cnc1Cl` [Example 213, 2-((6-Chloro-5-methylpyridin-3-yl)methyl)-7-((2-methyl-1H-imidazol-1-yl)methyl)-5-(1-methyl-3-(trifluoromethyl)-1H-pyrazol-4-yl)-3,4-dihydroisoquinolin-1(2H)-one], `Cc1nccn1Cc1cc2c(c(-c3cn(C)nc3C(F)(F)F)c1)CCN(Cc1ccc3c(c1)OCO3)C2=O` [Example 170, 2-(Benzo[d][1,3]dioxol-5-ylmethyl)-7-((2-methyl-1H-imidazol-1-yl)methyl)-5-(1-methyl-3-(trifluoromethyl)-1H-pyrazol-4-yl)-3,4-dihydroisoquinolin-1(2H)-one] is higher in GI50: less than 50 nM for the first, 835 nM for the second.

Going from `CCn1cc(-c2cc(Cn3cnn(C)c3=N)cc3c2CCN(Cc2cc(C)nn2C)C3=O)c(C(F)(F)F)n1` [Example 128, 2-((1,3-Dimethyl-1H-pyrazol-5-yl)methyl)-7-((5-imino-1-methyl-1,5-dihydro-4H-1,2,4-triazol-4-yl)methyl)-5-(1-ethyl-3-(trifluoromethyl)-1H-pyrazol-4-yl)-3,4-dihydroisoquinolin-1(2H)-one] to `COc1ccnc(CN2CCc3c(cc(Cn4cc5n(c4=N)CCC5)cc3-c3cn(C)nc3C(F)(F)F)C2=O)c1` [Example 62, 7-((3-Imino-6,7-dihydro-3H-pyrrolo[1,2-c]imidazol-2(51/)-yl)methyl)-2-((4-methoxypyridin-2-yl)methyl)-5-(1-methyl-3-(trifluoromethyl)-1H-pyrazol-4-yl)-3,4-dihydroisoquinolin-1(2H)-one], the GI50 falls from greater than 938 nM to 572 nM.

First: COc1ccnc([C@H](C)N2CCc3c(cc(Cn4ccnc4C)cc3-c3cncnc3C(F)(F)F)C2=O)c1 [Example 249, (S)-2-(1-(4-Methoxypyridin-2-yl)ethyl)-7-((2-methyl-1H-imidazol-1-yl)methyl)-5-(4-(trifluoromethyl)pyrimidin-5-yl)-3,4-dihydroisoquinolin-1(2H)-one]
Second: CCn1cc(-c2cc(Cn3ccnc3)cc3c2CCN([C@H](c2cc(OC)ccn2)C2CC2)C3=O)c(C(F)(F)F)n1 [Example 212, (S)-7-((1H-Imidazol-1-yl)methyl)-2-(cyclopropyl(4-methoxypyridin-2-yl)methyl)-5-(1-ethyl-3-(trifluoromethyl)-1H-pyrazol-4-yl)-3,4-dihydroisoquinolin-1(2H)-one]
The GI50 of the first is higher: 1970 nM for the first, less than 50 nM for the second.

Compared with `CCc1nccn1Cc1cc2c(c(-c3cc(C)nc(C)c3)c1)CCN(Cc1cc(OC)cc(OC)c1)C2=O` [Example 155, 2-(3,5-Dimethoxybenzyl)-5-(2,6-dimethylpyridin-4-yl)-7-((2-ethyl-1H-imidazol-1-yl)methyl)-3,4-dihydroisoquinolin-1(2H)-one], `COc1cc(CN2CCc3c(cc(Cn4cnn(C)c4=N)cc3-c3ccc(F)cc3C)C2=O)cc(OC)c1` [Example 121, 2-(3,5-Dimethoxybenzyl)-5-(4-fluoro-2-methylphenyl)-7-((5-imino-1-methyl-1,5-dihydro-4H-1,2,4-triazol-4-yl)methyl)-3,4-dihydroisoquinolin-1(2H)-one] is 3-fold lower in GI50: 407 nM for the first, 134 nM for the second.

Going from `COc1cc(CN2CCc3c(cc(Cn4cnc5ccccc54)cc3-c3ccc(F)cc3C)C2=O)cc(OC)c1` [Example 227] to `COc1cc(CN2CCc3c(cc(CNC(=N)C4CC4)cc3-c3ccc(F)cc3C)C2=O)cc(OC)c1` [Example 118, N-((2-(3,5-Dimethoxybenzyl)-5-(4-fluoro-2-methylphenyl)-1-oxo-1,2,3,4-tetrahydroisoquinolin-7-yl)methyl)cyclopropanecarboximidamide], the GI50 falls from 7450 nM to 159 nM (47-fold).

First: COc1ccnc(CN2CCc3c(cc(Cn4ccn(C)c4=N)cc3-c3ccc(F)cc3C)C2=O)c1 [Example 52, 5-(4-fluoro-2-methylphenyl)-7-((2-imino-3-methyl-2,3-dihydro-1H-imidazol-1-yl)methyl)-2-((4-methoxypyridin-2-yl)methyl)-3,4-dihydroisoquinolin-1(2H)-one]
Second: Cc1ccnc([C@H](C2CC2)N2CCc3c(cc(Cn4ccn(C)c4=N)cc3-c3cccnc3C(F)(F)F)C2=O)c1 [Example 36, (S)-2-(Cyclopropyl(4-methylpyridin-2-yl)methyl)-7-((2-imino-3-methyl-2,3-dihydro-1H-imidazol-1-yl)methyl)-5-(2-(trifluoromethyl)pyridin-3-yl)-3,4-dihydroisoquinolin-1(2H)-one]
The GI50 of the first is lower: less than 50 nM for the first, 201 nM for the second.

`COc1cc(CN2CCc3c(cc(CN4CCCC4=N)cc3-c3cn(C)nc3C(F)(F)F)C2=O)cc(OC)c1` [Example 109, 2-(3,5-Dimethoxybenzyl)-7-((2-iminopyrrolidin-1-yl)methyl)-5-(1-methyl-3-(trifluoromethyl)-1H-pyrazol-4-yl)-3,4-dihydroisoquinolin-1(2H)-one] was tested, and the GI50 was 104 nM.

same assay, conditions: Homo sapiens, MV4-11, 120 h, read-out: GI50 on cellular proliferation of MV4:11 human cancer cell lines

In the case of `COc1ccnc(CN2CCc3c(cc(Cc4cncn4C)cc3-c3cn(C)nc3C(F)(F)F)C2=O)c1` [Example 131, 2-((4-Methoxypyridin-2-yl)methyl)-7-((1-methyl-1H-imidazol-5-yl)methyl)-5-(1-methyl-3-(trifluoromethyl)-1H-pyrazol-4-yl)-3,4-dihydroisoquinolin-1(2H)-one], the GI50 is reported as greater than 938 nM.

same assay, conditions: MV4:11 cells; 5 day incubation; CellTiter-Glo; mean of minimum two replicates; read-out: GI50 on cellular proliferation of MV4:11 human cancer cell lines

For `Cc1cc(CN2CCc3c(cc(Cn4ccnc4C)cc3-c3cn(C)nc3C(F)(F)F)C2=O)cnc1Cl` [Example 242, 2-((6-Chloro-5-methylpyridin-3-yl)methyl)-7-((2-methyl-1H-imidazol-1-yl)methyl)-5-(1-methyl-3-(trifluoromethyl)-1H-pyrazol-4-yl)-3,4-dihydroisoquinolin-1(2H)-one], the GI50 was 50 nM.

— patent publication US11999716B2, “WDR5 inhibitors and modulators” (priority 2018, dated 2024)
